According to patent US12622914B2, “Pharmaceutical rectal suppository compositions of 6-thioguanine, methods of treatment and/or methods of manufacturing” (Douglas Pharmaceuticals Ltd., priority 2023, dated 2026):

Tests used:
induced colitis = settings: mice lacking the enzyme HPRT, treatment with 6-thioguanine; cited from earlier work
[1] = Particle size distribution (Malvern Mastersizer 3000); assay type: physicochemical; settings: dispersed in n-heptane containing 0.1% span 80 pre-saturated with 6-thioguanine
Protocol: The particles size distribution of the API alone and in the rectal suppository formulations was measured using a Malvern Mastersizer 3000 (Hydro SM). The samples were dispersed in n-heptane containing 0.1% span 80 pre-saturated with 6-thioguanine (to reduce any dissolution of the 6-thioguanine particles in the samples).

D10 [1]	D50 [1]	D90 [1]	D10 ([1]; listed as Batch C)	D50 ([1]; listed as Batch C)	D90 ([1]; listed as Batch C)	Structure (SMILES)	reduction in induced colitis (induced colitis)
						Nc1nc(=S)c2[nH]cnc2[nH]1 [6-thioguanine, 2-amino-1H-purine-6(7H)-thione]	rapid and appreciable reduction in induced colitis
5.3 μm	69.1 μm	267.0 μm				Nc1nc(=S)c2[nH]cnc2[nH]1 [B, 6-thioguanine]	
5.4 μm	66.8 μm	261.0 μm				Nc1nc(=S)c2[nH]cnc2[nH]1 [Sample A, 6-thioguanine]	
2.9 μm	9.0 μm	151.0 μm	2.9 μm	9.0 μm	151.0 μm	Nc1nc(=S)c2[nH]cnc2[nH]1 [Sample C, 6-thioguanine]	
